Assay type in all cases: binding
In assay [1] the target is PhACO1 (Petunia x hybrida, UniProt Q08506). Description: isothermal titration calorimetry. In general terms: ITC needs no label: the signal is the heat of the interaction.
Assay [2] deals with PhACO1 (Petunia x hybrida, UniProt Q08506, R244A). Description: isothermal titration calorimetry.
Assay [3] has as its target AtACO2 (Arabidopsis thaliana, UniProt Q41931). The experiment in a line: intrinsic tryptophan fluorescence quenching. The settings on record: 5 µM enzyme, Ni(II), 50 mM Tris pH 7.5, 28 °C; negative control (non-binder).

Two compounds from paper doi:10.64898/2025.12.04.692314v1 (biorxiv, 2025) can be followed below.

Sequence of AtACO2 (Q41931 whole entry): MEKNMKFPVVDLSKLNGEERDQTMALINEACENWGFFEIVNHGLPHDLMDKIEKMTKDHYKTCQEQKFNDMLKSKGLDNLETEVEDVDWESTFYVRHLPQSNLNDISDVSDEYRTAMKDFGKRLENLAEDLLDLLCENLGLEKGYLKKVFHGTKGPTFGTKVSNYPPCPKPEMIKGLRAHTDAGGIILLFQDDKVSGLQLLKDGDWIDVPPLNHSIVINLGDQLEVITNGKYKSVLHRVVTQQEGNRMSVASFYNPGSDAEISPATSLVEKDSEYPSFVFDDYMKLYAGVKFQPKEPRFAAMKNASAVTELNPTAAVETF
Sequence of PhACO1 (Petunia x hybrida, UniProt Q08506) (Q08506 whole entry): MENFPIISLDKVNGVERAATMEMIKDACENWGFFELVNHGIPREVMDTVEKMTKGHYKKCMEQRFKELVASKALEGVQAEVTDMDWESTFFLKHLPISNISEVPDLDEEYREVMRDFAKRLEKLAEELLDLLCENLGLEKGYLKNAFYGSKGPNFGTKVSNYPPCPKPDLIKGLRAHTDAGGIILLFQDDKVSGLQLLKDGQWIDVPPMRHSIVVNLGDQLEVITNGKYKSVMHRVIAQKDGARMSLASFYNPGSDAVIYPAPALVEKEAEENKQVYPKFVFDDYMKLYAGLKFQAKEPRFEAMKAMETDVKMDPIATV
Sequence of PhACO1 (Petunia x hybrida, UniProt Q08506, R244A) (Q08506 whole entry R244A): as the sequence (Q08506 whole entry) above, with R244A counted along it

With `O=C(O)c1cnccn1` [POA], the Kd came to 69.5 µM in assay [1] and 104 µM in assay [2].
For `O=C(O)c1ccccc1` [benzoic acid], in assay [3], the “intrinsic tryptophan fluorescence quenching” value is “benzoic acid did not quench fluorescence”.

Broadly, the Kd is the equilibrium constant for the complex coming apart. A high value points to a looser complex.
